According to ChEMBL document CHEMBL4622872, “Discovery of DS-1971a, a Potent, Selective NaV1.7 Inhibitor” (J Med Chem, 2020):
Values after ≈ are worked out from the molar mass of the structure shown.

What was measured:
[1] = Aqueous thermodynamic solubility of the compound at pH 6.8 measured after 4 hrs by UV-HPLC analysis; type: physicochemical; details: buffer, pH 6.8; read-out: Therm_solubility
[2] = Stability of the compound in mouse liver microsomes assessed as parent compound remaining measured after 0.5 hrs; type: ADME, Microsome; details: mouse liver microsomes, read-out: Stability
[3] = Distribution coefficient, log D of the compound in 1-octanol and PBS buffer at pH 7.4 measured after 30 mins by LC-MS analysis; type: physicochemical; details: 1-octanol/PBS buffer

Compound | solubility thermodynamic at 4 h [1] | remaining at 0.5 h [2] | logD at 0.5 h [3]
Cn1nccc1[C@H]1CCC[C@@H]1Oc1cc(F)c(S(=O)(=O)Nc2ccncn2)cc1Cl (racemic) | 240 µM (≈ 108 µg/mL) | 88% | 0.9
Cn1nccc1[C@H]1CCCC[C@@H]1Oc1cc(F)c(S(=O)(=O)Nc2ccncn2)cc1F (racemic) | 1900 µM (≈ 854 µg/mL) | 80% | 0.3
